Laboratory results from PubChem BioAssay AID449750 (Broad Institute, 2010).
Activity calls are given as the source filed them. No rule for the calls is given here.

Experiment: non-covalent RecA intein splicing inhibitors, dose response, biochemical, cell-free, fluorescence, secondary screen (AID 449750)

Row | SMILES | AC50
1 | CCOC(=O)CSc1nnc(NCC(=O)OC)c(=O)[nH]1 | > 38 µM (inactive)
2 | CS/C(=C\[N+](=O)[O-])Nc1ccc(OC(F)(F)F)cc1 | > 38 µM (inactive)
3 | COc1ccc(O)c(C(c2c(C)[nH][nH]c2=O)c2c(C)[nH][nH]c2=O)c1 | 8.26 µM
4 | CC1=NN(c2ccccc2)C(=O)C1=C(C)C | 15.9 µM
5 | CCCc1[nH]nc2c1C(c1ccc(OC(=O)c3ccco3)cc1)C(C#N)=C(N)O2 (configuration not stated) | > 38 µM (inactive)
6 | COc1ccc(-n2c3nc4ccccc4nc3c3c(=N)oc(C)nc32)cc1 | > 12 µM (inactive)
7 | N#CC1=C(N)C(C#N)(C#N)C(c2cccnc2)C2CN(C(=O)OCc3ccccc3)CC=C12 (configuration not stated) | > 38 µM (inactive)
8 | [O-]C1=N/[N+](=C/c2ccc(Cl)cc2)CC1 | > 38 µM (inactive)
9 | O=c1c2c([nH]n1-c1ccccc1)CCSC2 | 36.5 µM
10 | COc1cc(C(c2c(C)[nH][nH]c2=O)c2c(C)[nH][nH]c2=O)ccc1OS(=O)(=O)c1ccccc1 | 9.54 µM
11 | COc1cc2c(cc1OC)C(c1cc(Br)ccc1F)N(C(=O)CCl)CC2 (configuration not stated) | 2.43 µM
12 | CCC(C)[C@@H](NC(=O)OC(C)(C)C)c1nnc(S(=O)(=O)Cc2cccc(C)c2)o1 (some centres not stated) | > 38 µM (inactive)
13 | CN1CCN(C2=C(Cl)C(=O)N(c3ccc(Cl)cc3)C2=O)CC1 | 3.49 µM
14 | Cc1nnc(N/N=C/c2ccccc2O)n1N | 21.8 µM
15 | COc1ccc(-c2cc(C#N)nc(Cl)n2)cc1 | > 38 µM (inactive)
16 | Cc1ccc(NC(=O)c2nc(S(=O)(=O)Cc3ccccc3)ncc2Cl)cc1 | > 38 µM (inactive)
17 | O=C(CCl)N1N=C(c2ccco2)CC1c1ccco1 (configuration not stated) | 19.1 µM
18 | N#CC1=C(N)N(c2ccccc2)C(c2cccc([N+](=O)[O-])c2)C1(C#N)C#N (configuration not stated) | > 38 µM (inactive)
19 | COC(=O)Cc1c(C)[nH]n(-c2cc(Cl)cc(Cl)c2)c1=O | > 38 µM (inactive)
20 | O=C1COc2ccc(C(=O)CCl)cc2N1 | > 38 µM (inactive)
21 | O=C(CCl)Nc1ccc(-c2ccccc2)cc1 | 5.56 µM
22 | CC(=O)C12CC(C)=C(C)CC1CC1C3CCC4=CC(=O)CCC4(C)C3CCC12C (configuration not stated) | 4.58 µM
23 | O=C(CCl)N(Cc1cccc([N+](=O)[O-])c1)c1cccc(Cl)c1 | 2.77 µM
24 | COc1ccc(C(=O)n2nnc3ccccc32)cc1Br | > 38 µM (inactive)
25 | CCOC(=O)c1c(C)sc2c1N(C(=O)CCl)c1cc(Cl)ccc1S2 | 3.37 µM
26 | C/C(CC(=O)Nc1ccccc1[N+](=O)[O-])=N\NC(=O)COc1ccccc1C | > 38 µM (inactive)

Row | SMILES | AC50
27 | CCCc1[nH]nc2c1C(c1ccc(OC)c(CSC3=NCCS3)c1)C(C#N)=C(N)O2 (configuration not stated) | 18.5 µM
28 | Nc1c(O)cccc1C(=O)O | 27.2 µM
29 | COC(=O)Cc1[nH]nc2c1C(c1c[nH]c3ccccc13)C(C#N)=C(N)O2 (configuration not stated) | > 38 µM (inactive)
30 | CCCCCOP(=O)(OCCCCC)C1(NS(=O)(=O)c2ccccc2)C=CC(=O)c2ccccc21 (configuration not stated) | 6.5 µM
31 | CCCc1[nH]nc2c1C(c1cccc(OC)c1)C(C#N)=C(N)O2 (configuration not stated) | > 38 µM (inactive)
32 | Cc1c(/C=N/Nc2nc3ccccc3[nH]2)c2ccccc2n1C | 28.1 µM
33 | O=C(Nc1cccc(F)c1)N1CCC(c2ccccc2)CC1 | > 38 µM (inactive)
34 | CCCCCc1c2c(cc(O)c1C(=O)O)OC(=O)c1c(cc(OC)cc1C(=O)CCCC)O2 | 8.72 µM
35 | COc1cc(OC)cc(-c2nnc(Sc3ccc(C=O)cc3[N+](=O)[O-])o2)c1 | 21.3 µM
36 | CCOc1cc(/C=C2\C(=O)N(CCC#N)N=C2C)ccc1OCC(N)=O | 12.6 µM
37 | CC(=O)NC1C(=O)N(CCN2CCOCC2)c2ccc(Br)cc21 (configuration not stated) | 18.1 µM
38 | O=C(O)COc1cccc(/C=C2/SC(=S)N(Cc3ccccc3)C2=O)c1 | 21.5 µM
39 | Cc1cc(C)c(S(C)(=O)=O)c(Oc2cccc(C(F)(F)F)c2)n1 | > 38 µM (inactive)
40 | O=C(O)c1ccc(S(=O)(=O)/N=C2\C=C(Nc3ccccc3F)C(=O)c3ccccc32)cc1 | 0.229 µM
41 | COc1ccc(NC(=O)/C(Cl)=C(/Cl)S(=O)Cc2ccccc2)cn1 (configuration not stated) | > 38 µM (inactive)
42 | CC1=NN(c2ccccc2)C(=O)/C1=C/c1cccs1 | 9.94 µM
43 | O=C(CCl)Nc1cc(-c2ccccc2)nn1-c1ccccc1 | 9.05 µM
44 | c1ccc(-c2ccc(C3CCCN3)cc2)cc1 (configuration not stated) | > 38 µM (inactive)
45 | CCN(CC)CCN1C(=O)c2cccc3cc(N)cc(c23)C1=O | 1.69 µM
46 | Nc1ccc2nc(Cc3ccccc3)[nH]c2c1 | > 38 µM (inactive)
47 | CCCCn1c(NC(=O)c2ccc(Br)o2)c(S(=O)(=O)c2ccccc2)c2nc3ccccc3nc21 | > 38 µM (inactive)
48 | Cc1ccc(S(=O)(=O)N[C@@H](CCCCN)C(=O)CCl)cc1 | > 38 µM (inactive)
49 | CCC1C(=O)N(c2nc(C)cc(C)n2)N=C1C (configuration not stated) | > 38 µM (inactive)
50 | CC[C@@H](CO)NC(=O)[C@@H]1C=C2c3cccc4c3c(cn4C)C[C@H]2N(C)C1 | > 38 µM (inactive)
51 | CCOc1cc(NC2CS(=O)(=O)CC2O)c(OCC)cc1NC(=O)c1ccccc1 (configuration not stated) | > 38 µM (inactive)
52 | CC(=O)n1cc(N(C(=O)CCl)c2ccc(Cl)cc2)c2ccccc21 | 2.08 µM

Row | SMILES | AC50
53 | COc1ccc2ccc3c(c2c1)N=C[C@]1(O3)N(C)c2ccccc2C1(C)C | > 38 µM (inactive)
54 | Cc1ccc(CS(=O)(=O)c2ncc(Cl)c(C(=O)Nc3nnc(C)s3)n2)cc1 | > 38 µM (inactive)
55 | O=C1/C(=C/c2ccc(F)cc2)SC(=S)N1CC(=O)N1CCCCC1c1cccnc1 (configuration not stated) | 38.4 µM
56 | CC1=Nc2cccc3cccc(c23)N1C | > 38 µM (inactive)
57 | COc1ccccc1N(C(=O)CCl)c1cn(C(C)=O)c2ccccc12 | 2.36 µM
58 | O=C(CCl)Nc1c2c(nn1-c1ccccc1)CSC2 | 29.2 µM
59 | CC(/C=N/NC(=O)Cc1cc(=O)[nH][nH]1)=C\c1ccccc1 | 27 µM
60 | O=C(CCl)Oc1ccc2occ(C(=O)c3cccs3)c2c1 | > 38 µM (inactive)
61 | CC1CCc2c(sc3nc(C(C)(C)C)nc(N4CCN(C(=O)CCl)CC4)c23)C1 (configuration not stated) | 2.61 µM
62 | O=C(Cc1cc(=O)[nH][nH]1)N/N=C/c1cccc(Cl)c1Cl | 20 µM
63 | COc1ccccc1NC1=C(N2CCCCC2)C(=O)c2ccccc2C1=O | 8.09 µM
64 | CCOC(=O)/C=c1\s/c(=C(\C#N)C(N)=O)n(-c2ccccc2)c1=O | > 38 µM (inactive)
65 | Cc1ccc(C)c(S(=O)(=O)Nc2ccc(O)c3ccccc23)c1 | 0.598 µM
66 | COc1cc(/C=N\NC(=O)c2ccccc2F)ccc1Oc1ccc([N+](=O)[O-])cn1 | > 38 µM (inactive)
67 | O=C(CN1C(=O)S/C(=C\C=C\c2ccccc2)C1=O)Nc1ccccc1C(=O)O | 14.1 µM
68 | CCOc1ccc(C(c2c(C)[nH][nH]c2=O)c2c(C)[nH][nH]c2=O)cc1OC | 6.7 µM
69 | Cc1nc2ccccc2c2c1C(=O)N(C(C)C)C2=O | > 38 µM (inactive)
70 | Cc1nn(Cc2ccccc2)c2c1C(c1cccnc1)C(C#N)=C(N)O2 (configuration not stated) | > 38 µM (inactive)
71 | Cc1ccc(C2CC(c3cccs3)=NN2C(=O)CSC2=NCCS2)cc1 (configuration not stated) | 9.96 µM
72 | CSc1nc(-c2ccc(Cl)cc2)nn1C(=O)c1ccco1 | > 38 µM (inactive)
73 | CCCOC(=O)c1ccc(OC(=O)c2ccco2)cc1 | > 38 µM (inactive)
74 | CC(=O)N(c1ccccc1)C(C)c1nc(C#N)c(C#N)nc1C (configuration not stated) | > 38 µM (inactive)
75 | COCCN(C(=O)CCl)C(C(=O)NC1CCCCC1)c1ccccc1C (configuration not stated) | 8.09 µM
76 | Cn1cnc([N+](=O)[O-])c1Sc1ccc(C(C)(C)C)cc1 | > 38 µM (inactive)
77 | O=C1C=C(N2CCOCC2)c2ccccc2C1=O | 4.51 µM
